Experimental data taken from publication PMC11116414, “Impact of secretin receptor homo-dimerization on natural ligand binding” (Nature Communications, 2024).
No end group written: not given here.

Test system: cysteine-containing SecR(G264A,I268A) constructs
Assay: Cysteine trapping with SecR(G264A,I268A) cysteine constructs, intact COS-1 cells
Format: binding, human
Conditions: for Intraloop labeling / Overall labeling: mean ± S.E.M.; for cysteine trapping in ECL3, in words: WT (earlier work) and non-dimerizing SecR
Experimental: In short, 15 µg of each peptide were incubated with 1 mCi of Na^125I for 15 s in borate buffer (pH 9.0) using solid-state N-chlorobenzene sulfonamide (iodination beads), and radioactive peptide products were separated and purified using reversed-phase HPLC, to yield a mono-iodinated peak with a specific radioactivity of 2000 Ci/mmol.
Modified secretin receptor constructs were prepared by mutagenesis of human SecR(G264A,I268A) by introducing cysteine residues to replace each natural residue in the N-terminal stalk region, (extracellular loop 1) ECL1, ECL2, and ECL3 regions of the receptor[21]. Mutagenesis was performed using the QuikChange site-directed mutagenesis kit from Stratagene (La Jolla, CA), with the products verified by direct DNA sequencing.
Cysteine trapping is a technique in which cysteine residues incorporated into distinct positions within a peptide ligand and within its receptor are allowed to form disulfide bonds when two free cysteines are in proximity to each other with necessary distance and geometry. As noted above, this was performed with secretin peptides incorporating cysteines in positions 2, 5, 6 and 7[20],[21], and with a series of SecR mutants incorporating cysteines in all extracellular domains (75 distinct constructs in a TM4 mutant non-dimerizing SecR background). COS-1 cells were grown to approximate 85% confluence in 24-well tissue culture plates, and transfected with cysteine mutant receptor constructs using the PEI method. Assays were started by washing the cells with DMEM containing 5% Fetal Clone II before being incubated with 200 μl radiolabeled cysteine-containing probes (approximately 100,000 cpm per well) for 1.5 h at room temperature. The assays were terminated by washing the cells with ice-cold PBS, pH 7.4, and mixing with 60 µl SDS Laemmli sample buffer not containing dithiothreitol (DTT). Lysates were run on 10% SDS-polyacrylamide gels. Gels were then dried, and bands of interest were visualized by autoradiography, and specific bands were identified, and intensities quantified using ImageJ. Sites having labeling above background were determined using one-way ANOVA with Dunnett’s post-test, with P < 0.001 considered to be significant. The apparent molecular weights of the receptor bands were determined by interpolation with the mobility of the appropriate ProSieve protein markers.

[1] = A292C, ECL2, n = 3-5, Cys5 significant (P < 0.0001)
[2] = F279C, ECL2, % of highest-labeled residue across all constructs, n = 4 (Cys2), 5 (Cys5, Cys6), 3 (Cys7)
[3] = L374C, ECL3, n = 3-5, Cys5, Cys6, Cys7 significant (P < 0.001)
[4] = M366C, ECL3, n = 3-5, Cys5 significant (P < 0.0001)
[5] = W296C, ECL2, n = 3-5, Cys6 significant (P = 0.0003)

## Cys^6-[Tyr^10]secretin(1-27) (HSDGTCTSEYSRLREGARLQRLLQGLV; not fully specified; ends and bridges not checked; also: radioiodinated; UniProt P09683 28-54, looked up, variant F6C L10Y) [Cys^6-Sec, cysteine-containing secretin agonist probe, radioiodinated for cysteine trapping]
A292C, ECL2, n = 3-5
  Intraloop labeling: 29.1 ±17.0 percentage
[1]
  Overall labeling: 24.9±17.2 percentage
D282C, ECL2, n = 3-5
  Intraloop labeling: < 1 percentage
  Overall labeling: < 1 percentage
D364C, ECL3, n = 3-5
  Intraloop labeling: 17.1±8.2 percentage
D364C, ECL3, n = 3-5, Cys5 significant (P < 0.0001)
  Overall labeling: 16.2±8.4 percentage
E367C, ECL3, n = 3-5
  Intraloop labeling: 40.8±17.2 percentage
  Overall labeling: 35.5±14.9 percentage
E373C, ECL3, n = 3-5
  Intraloop labeling: 19.9±17.3 percentage
  Overall labeling: 13.9±11.4 percentage
[2]
  Overall labeling: < 1 percentage
F358C, ECL3, n = 3-5
  Intraloop labeling: 16.4±12.8 percentage
  Overall labeling: 10.2±6.9 percentage
F371C, ECL3, n = 3-5
  Intraloop labeling: 11.4±11.0 percentage
F372C, ECL3, n = 3-5
  Intraloop labeling: 19.0±15.7 percentage
  Overall labeling: 13.6±10.3 percentage
G284C, ECL2, n = 3-5
  Overall labeling: < 1 percentage
I294C, ECL2, n = 3-5
  Intraloop labeling: 10.5±9.5 percentage
  Overall labeling: 10.3±9.5 percentage
I297C, ECL2, n = 3-5
  Intraloop labeling: 30.1±18.4 percentage
L374C, ECL3, n = 3-5
  Intraloop labeling: 94.8±5.2 percentage
[3]
  Overall labeling: 78.8±9.2 percentage
M366C, ECL3, n = 3-5
  Intraloop labeling: 56.2±16.4 percentage
[4]
  Overall labeling: 48.0±17.7 percentage
N289C, ECL2, n = 3-5
  Intraloop labeling: 15.8±14.5 percentage
  Overall labeling: 15.7±14.5 percentage
N291C, ECL2, n = 3-5
  Intraloop labeling: < 1 percentage
  Overall labeling: < 1 percentage
Q369C, ECL3, n = 3-5
  Intraloop labeling: 13.0±12.7 percentage
V283C, ECL2, n = 3-5
  Intraloop labeling: 15.8±13.9 percentage
  Overall labeling: 15.5±13.9 percentage
W286C, ECL2, n = 3-5
  Intraloop labeling: 24.4±19.3 percentage
  Overall labeling: 13.4±8.9 percentage
W295C, ECL2, n = 3-5
  Intraloop labeling: 34.2±0.1 percentage
W295C, ECL2, n = 3-5, Cys2, Cys5, Cys7 significant (P < 0.0001)
  Overall labeling: 34.1±17.2 percentage
W296C, ECL2, n = 3-5
  Intraloop labeling: 80.2±19.8 percentage
[5]
  Overall labeling: 68.0±20.5 percentage
  cysteine trapping in ECL3, in words: labeled ECL3 residues

## Cys^7-[Tyr^10]secretin(1-27) (HSDGTFCSEYSRLREGARLQRLLQGLV; not fully specified; ends and bridges not checked; also: radioiodinated; UniProt P09683 28-54, looked up, variant T7C L10Y) [Cys^7-Sec, cysteine-containing secretin agonist probe, radioiodinated for cysteine trapping]
A290C, ECL2, n = 3-5
  Intraloop labeling: < 1 percentage
  Overall labeling: < 1 percentage
A292C, ECL2, n = 3-5
  Intraloop labeling: < 1 percentage
[1]
  Overall labeling: < 1 percentage
A359C, ECL3, n = 3-5
  Intraloop labeling: 85.3±8.6 percentage
A359C, ECL3, n = 3-5, Cys7 significant (P = 0.0004)
  Overall labeling: 85.3±8.6 percentage
A365C, ECL3, n = 3-5
  Intraloop labeling: 66.4±17.1 percentage
A365C, ECL3, n = 3-5, Cys5 significant (P < 0.0001)
  Overall labeling: 66.4±17.1 percentage
D282C, ECL2, n = 3-5
  Intraloop labeling: < 1 percentage
  Overall labeling: < 1 percentage
D287C, ECL2, n = 3-5
  Intraloop labeling: 15.7±15.6 percentage
E363C, ECL3, n = 3-5
  Intraloop labeling: < 1 percentage
  Overall labeling: < 1 percentage
E367C, ECL3, n = 3-5
  Intraloop labeling: < 1 percentage
  Overall labeling: < 1 percentage
E373C, ECL3, n = 3-5
  Intraloop labeling: < 1 percentage
  Overall labeling: < 1 percentage
F279C, ECL2, % of highest labeling within loop, n = 4 (Cys2), 5 (Cys5, Cys6), 3 (Cys7)
  Intraloop labeling: < 1 percentage
[2]
  Overall labeling: < 1 percentage
F358C, ECL3, n = 3-5
  Intraloop labeling: 21.6±20.7 percentage
  Overall labeling: 21.6±20.7 percentage
F360C, ECL3, n = 3-5
  Intraloop labeling: 23.9±23.4 percentage
  Overall labeling: 23.9±23.4 percentage
F372C, ECL3, n = 3-5
  Intraloop labeling: 24.8±24.7 percentage
  Overall labeling: 24.8±24.7 percentage
G284C, ECL2, n = 3-5
  Intraloop labeling: < 1 percentage
  Overall labeling: < 1 percentage
I288C, ECL2, n = 3-5
  Intraloop labeling: 82.9±8.6 percentage
I288C, ECL2, n = 3-5, Cys5 and Cys7 significant (P < 0.0001)
  Overall labeling: 71.4±10.6 percentage
I294C, ECL2, n = 3-5
  Intraloop labeling: < 1 percentage
  Overall labeling: < 1 percentage
I297C, ECL2, n = 3-5
  Intraloop labeling: < 1 percentage
  Overall labeling: < 1 percentage
I368C, ECL3, n = 3-5
  Intraloop labeling: < 1 percentage
  Overall labeling: < 1 percentage
L280C, ECL2, n = 3-5
  Intraloop labeling: < 1 percentage
  Overall labeling: < 1 percentage
L374C, ECL3, n = 3-5
  Intraloop labeling: 88.6±11.4 percentage
[3]
  Overall labeling: 88.6±11.4 percentage
M366C, ECL3, n = 3-5
  Intraloop labeling: 55.6±22.3 percentage
[4]
  Overall labeling: 55.6±22.3 percentage
N291C, ECL2, n = 3-5
  Intraloop labeling: < 1 percentage
  Overall labeling: < 1 percentage
P362C, ECL3, n = 3-5
  Intraloop labeling: < 1 percentage
  Overall labeling: < 1 percentage
Q369C, ECL3, n = 3-5
  Intraloop labeling: < 1 percentage
  Overall labeling: < 1 percentage
S293C, ECL2, n = 3-5
  Intraloop labeling: < 1 percentage
  Overall labeling: < 1 percentage
S361C, ECL3, n = 3-5
  Intraloop labeling: < 1 percentage
  Overall labeling: < 1 percentage
V283C, ECL2, n = 3-5
  Intraloop labeling: < 1 percentage
  Overall labeling: < 1 percentage
W286C, ECL2, n = 3-5
  Overall labeling: < 1 percentage
W295C, ECL2, n = 3-5
  Intraloop labeling: 92.5±7.5 percentage
W296C, ECL2, n = 3-5
  Intraloop labeling: < 1 percentage
[5]
  Overall labeling: < 1 percentage
  cysteine trapping in ECL3, in words: labeled ECL3 residues
